Test results taken from US9604987B2, “Synthesis of autophagy inducing compound and the uses thereof” (Hong Kong Baptist University, priority 2012, dated 2017).

How the values were obtained:
[1] = tested on: phosphorylated mTOR and P70S6K; experiment: Western blot of mTOR pathway and other autophagy pathways in N2a cells; type: cell-based, mouse
Description: FIG. 7: Western blot analysis of expression level of phosphorylated mTOR (p-mTOR) or its substrate P70S6K (p-P70S6K) in N2a cells with treatment of 25 μM Cory B or 0.2 μM rapamycin for 6 hours (FIG. 7A); western blot analysis of Beclin 1 expression in N2a cells with non-target or Beclin 1-specific siRNA treatments followed by Cory B (FIG. 7B)
To elucidate the molecular mechanism of Cory B action, the classic autophagy controlling pathway, the mTOR pathway is first examined.

[2] = tested on: WT and A53T α-syn in differentiated DA neurons; experiment: α-syn degradation in human dopaminergic neurons differentiated from embryonic stem cells; type: cell-based
From the text: Differentiation of stem cells into dopaminergic neurons. The human embryonic stem (ES) cells were differentiated into dopaminergic neurons according to a previously described protocol with minor changes. Initially, ES cells were digested with dispase (17105041, Invitrogen,) and broken into smaller clusters to form the embryonic bodies. The next day, undifferentiated floating ES cell aggregates were transferred to a new flask. The cells were maintained in DMEM/F12 medium (11320082, Invitrogen) with half medium changed every day for 3 days. On the fourth day, ES cell aggregates were collected by centrifuge and re-suspended in NSM (DMEM/F12 containing 1% N2 supplement (17502048, Invitrogen), 1 μg/ml Heparin (H3149, Sigma), 200 μM NEAA (11140050, Invitrogen) and 2 mM L-glutamine (25030081, Invitrogen)) supplemented with 10% FBS. Embryonic stem cells were transferred to a new flask and medium was changed every other day. Three days later, cell aggregates were transferred to 6-well-plates. The next day, the FBS containing media were replaced with NSM containing 20 ng/ml FGF8 (PHG0184, Invitrogen) and 100 ng/ml SHH (PMC2095, Invitrogen), media were changed every other day. Five days later, the colonies in the dish were detached by pipetting gently with a P1000 pipette. […]

SH-SY5Y cells = experiment: Western blot of autophagy marker LC3-II in SH-SY5Y cells; type: cell-based, human; details: 0-25 μM, 24 hours
Description: Native and denatured PAGE and Western blotting analysis. Samples to be run under denaturing conditions were lysed with RIPA lysis buffer (150 mM NaCl, 50 mM Tris-HCl, 0.35% sodium deoxycholate, 1 mM EDTA, 1% NP40, 1 mM PMSF, 5 μg/ml aprotinin, 5 μg/ml leupeptin). Samples for native gels were lysed with detergent-free lysis buffer (50 mM Tris/HCl pH 7.4, 175 mM NaCl, 5 mM EDTA pH 8.0, 1 mM PMSF, 5 μg/ml aprotinin, 5 μg/ml leupeptin), and sheared 5 times through a 28-gauge needle followed by 2 times of sonication for 5 seconds according to previously described protocol. For denaturing, SDS-PAGE was performed using Tris-Glycine SDS running buffer and SDS sample buffer, and for native conditions, native-PAGE was run with detergent-free Tris-Glycine running buffer (BN2007, Invitrogen) and 4× native sample buffer (BN2003, Invitrogen) on a pre-casted native PAGE gel (BN1002BOX, Invitrogen). The proteins on the gels were then transferred to PVDF membrane (RPN303F, GE Healthcare) and processed for immunoblotting. Membranes were blocked with 5% non-fat milk and probed with the appropriate primary and secondary antibodies. The desired bands were visualized using the ECL kit (32106, Pierce). The band density was quantified using the ImageJ program and normalized to that of the control group. […]

For CC[C@@H]1CN2CC[C@]3(C(=O)Nc4ccccc43)C2C[C@@H]1C(=COC)C(=O)OC (stereo partly shown) [Cory B, Corynoxine B], the “phosphorylated mTOR and p-P70S6K levels” value ([1]; 25 μM Cory B or 0.2 μM rapamycin, 6 hours) was “neither phosphorylated mTOR nor its substrate P70S6K are affected”, the “AKT, AMPK, MEK/ERK, JNK, ER stress and calcium signaling pathways” value ([1]; data not shown) was “none of the above mentioned pathways are altered” and the “WT and A53T α-syn levels” value [2] was “dramatically decreases both WT and A53T α-syn levels”. The LC3-II levels (SH-SY5Y cells) was “increases levels of LC3-II”.
